# Laboratory results from patent USRE48461E1, “Modulation of androgen receptor expression” (Ionis Pharmaceuticals, Inc., priority 2012, dated 2021).
# pIC50: −log10 of the molar value. Oligonucleotides are written 5' to 3', each unit as a sugar letter and its base; * is a phosphorothioate linkage, no mark a phosphodiester; rarer units and linkages stand in square brackets, end groups in braces. Plain capitals give the bases only. k = constrained ethyl (cEt); [5mC] = 5-methylcytosine; d = 2'-deoxy (DNA)
# Legend:
# [1] = test system: AR mRNA; experiment: Dose-dependent antisense inhibition of human AR in HuVEC cells (electroporation, qRT-PCR RTS3559, IC50); format: cell-based; settings: for inhibition of AR mRNA at 46.9 nM: 46.9 nM ASO; for inhibition of AR mRNA at 187.5 nM: 187.5 nM ASO; for inhibition of AR mRNA at 750.0 nM: 750.0 nM ASO; for inhibition of AR mRNA at 3000.0 nM: 3000.0 nM ASO
# In short: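 HuVEC cells dosed with antisense oligonucleotides by electroporation and treated approximately 16 hours. AR mRNA quantified by real-time qPCR with primer probe set RTS3559 and normalised to total RNA by RIBOGREEN; IC50 from dose-response.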
# [2] = test system: AR mRNA; experiment: Antisense inhibition of human AR in HuVEC cells, single concentration (electroporation, qRT-PCR RTS3559); format: cell-based
# In short: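 HuVEC cells electroporated with antisense oligonucleotides at a single concentration. AR mRNA quantified by qRT-PCR using human primer-probe set RTS3559 and normalised to total RNA content by RIBOGREEN.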
# [3] = Table 36, 46.9 nM, HuVEC, electroporation, approximately 16 hours
# [4] = Table 36, 187.5 nM, HuVEC, electroporation, approximately 16 hours
# [5] = Table 36, 750.0 nM, HuVEC, electroporation, approximately 16 hours
# [6] = Table 36, 3000.0 nM, HuVEC, electroporation, approximately 16 hours
# [7] = Table 36, HuVEC, electroporation, approximately 16 hours
# [8] = Table 25, 1,000 nM oligonucleotide, electroporation, approximately 24 hours, relative to untreated control
# [9] = Table 27, 1,000 nM oligonucleotide, electroporation, approximately 24 hours, relative to untreated control
# [10] = Table 28, 1,000 nM oligonucleotide, electroporation, approximately 24 hours, relative to untreated control
# [11] = 46.9 nM, HuVEC, ~16 h, Table 15
# [12] = 187.5 nM, HuVEC, ~16 h, Table 15
# [13] = 750.0 nM, HuVEC, ~16 h, Table 15
# [14] = 3000.0 nM, HuVEC, ~16 h, Table 15
Substance,"percent inhibition of AR, 46.9 nM [1, 3] [%]","percent inhibition of AR, 187.5 nM [1, 4] [%]","percent inhibition of AR, 750.0 nM [1, 5] [%]","percent inhibition of AR, 3000.0 nM [1, 6] [%]","pIC50 [1, 7]","% inhibition [2, 8] [%]","% inhibition ([2]; 1,000 nM ASO, ~24 h, Table 26) [%]","% inhibition [2, 9] [%]","% inhibition [2, 10] [%]","percent inhibition of AR [1, 11] [%]","percent inhibition of AR [1, 12] [%]","percent inhibition of AR [1, 13] [%]","percent inhibition of AR [1, 14] [%]","pIC50 ([1]; HuVEC cells, electroporation)","inhibition of AR mRNA at 46.9 nM ([1]; HuVEC cells, electroporation) [%]","inhibition of AR mRNA at 187.5 nM ([1]; HuVEC cells, electroporation) [%]","inhibition of AR mRNA at 750.0 nM ([1]; HuVEC cells, electroporation) [%]","inhibition of AR mRNA at 3000.0 nM ([1]; HuVEC cells, electroporation) [%]","pIC50 ([1]; HuVEC, ~16 h, Table 15)","% inhibition ([2]; 1,000 nM ASO, ~24 h, Table 13) [%]"
584242 (k[5mC]*k[5mC]*kA*dT*dT*dT*dG*dT*dG*d[5mC]*d[5mC]*dA*dA*kA*k[5mC]*k[5mC]; antisense) [compound 584242],12,38,66,93,6.57,62,–,–,–,–,–,–,–,–,–,–,–,–,–,–
584245 (kA*kG*kG*dT*dT*dA*dG*dG*dG*dA*dG*dT*dA*kG*kG*k[5mC]; antisense) [compound 584245],4,33,69,90,6.49,70,–,–,–,–,–,–,–,–,–,–,–,–,–,–
584263 (kT*kA*kG*dG*dG*dT*dT*dT*dG*dG*dT*d[5mC]*dA*kG*kA*kA; antisense) [compound 584263],9,24,67,90,6.47,56,–,–,–,–,–,–,–,–,–,–,–,–,–,–
584274 (kG*kT*kT*dA*dT*d[5mC]*dT*dT*dA*d[5mC]*dT*d[5mC]*dT*k[5mC]*k[5mC]*k[5mC]; antisense) [compound 584274],17,36,74,93,6.64,70,–,–,–,–,–,–,–,–,–,–,–,–,–,–
584329 (kG*kG*kT*dT*dA*dT*dG*dG*dT*dT*d[5mC]*dT*dG*kT*k[5mC]*kT; antisense) [compound 584329],0,17,67,86,6.34,–,58,–,–,–,–,–,–,–,–,–,–,–,–,–
584361 (k[5mC]*kT*kT*d[5mC]*dA*dT*dT*dG*d[5mC]*dA*dG*dG*dT*k[5mC]*kT*kG; antisense) [compound 584361],0,18,71,87,6.39,–,61,–,–,–,–,–,–,–,–,–,–,–,–,–
584469 (kT*kT*kT*dG*dG*dT*dA*dA*d[5mC]*dA*dT*dT*dA*kG*kG*k[5mC]; antisense) [compound 584469],13,46,73,89,6.66,–,–,74,63,–,–,–,–,–,–,–,–,–,–,–
584495 (kA*kT*kG*dG*dT*dT*dG*dT*d[5mC]*d[5mC]*dT*dG*dT*kA*k[5mC]*kA; antisense) [compound 584495],0,14,55,74,6.19,–,–,58,53,–,–,–,–,–,–,–,–,–,–,–
586224 (kT*kT*kG*kA*kT*dT*dT*dA*dA*dT*dG*dG*dT*kT*kG*k[5mC]; antisense) [compound 586224],–,–,–,–,–,–,–,–,–,39,75,93,98,7.30,39,75,93,98,7.30,90
586225 (kG*kT*kT*kG*kA*dT*dT*dT*dA*dA*dT*dG*dG*kT*kT*kG; antisense) [compound 586225],–,–,–,–,–,–,–,–,–,17,61,89,97,6.89,17,61,89,97,6.89,88
